Reference: patent US10479786B2, “Protein kinase inhibitors” (Princeton Drug Discovery Inc, priority 2016, dated 2019)

Tests used:
ABL = biological target: T1, ABL (Homo sapiens, UniProt P00519); assay: Off-chip Mobility Shift Assay, kinase inhibition; type: biochemical; details: recombinant ABL; for inhibition at 0.001 µM: at 1 nM; for inhibition at 0.01 µM: at 10 nM
T1 construct: purchased Carna Biosciences, Inc

ABL(E255K) = biological target: T2, ABL(E255K) (Homo sapiens, UniProt P00519, E255K); assay: Off-chip Mobility Shift Assay, kinase inhibition; type: biochemical; details: recombinant ABL(E255K); for inhibition at 0.001 µM: at 1 nM; for inhibition at 0.01 µM: at 10 nM
T2 construct: purchased Carna Biosciences, Inc

ACK = biological target: T3, ACK (Homo sapiens, UniProt Q07912); assay: Off-chip Mobility Shift Assay, kinase inhibition; type: biochemical; details: at 10 nM; recombinant ACK
T3 construct: purchased Carna Biosciences, Inc

ARG = biological target: T4, ARG (Homo sapiens, UniProt P42684); assay: Off-chip Mobility Shift Assay, kinase inhibition; type: biochemical; details: at 10 nM; recombinant ARG; read-out: inhibition
T4 construct: purchased Carna Biosciences, Inc

DDR2 = biological target: T5, DDR2 (Homo sapiens, UniProt Q16832); assay: Off-chip Mobility Shift Assay, kinase inhibition; type: biochemical; details: at 10 nM; recombinant DDR2; read-out: inhibition
T5 construct: purchased Carna Biosciences, Inc
T5 sequence (Q16832 22-855): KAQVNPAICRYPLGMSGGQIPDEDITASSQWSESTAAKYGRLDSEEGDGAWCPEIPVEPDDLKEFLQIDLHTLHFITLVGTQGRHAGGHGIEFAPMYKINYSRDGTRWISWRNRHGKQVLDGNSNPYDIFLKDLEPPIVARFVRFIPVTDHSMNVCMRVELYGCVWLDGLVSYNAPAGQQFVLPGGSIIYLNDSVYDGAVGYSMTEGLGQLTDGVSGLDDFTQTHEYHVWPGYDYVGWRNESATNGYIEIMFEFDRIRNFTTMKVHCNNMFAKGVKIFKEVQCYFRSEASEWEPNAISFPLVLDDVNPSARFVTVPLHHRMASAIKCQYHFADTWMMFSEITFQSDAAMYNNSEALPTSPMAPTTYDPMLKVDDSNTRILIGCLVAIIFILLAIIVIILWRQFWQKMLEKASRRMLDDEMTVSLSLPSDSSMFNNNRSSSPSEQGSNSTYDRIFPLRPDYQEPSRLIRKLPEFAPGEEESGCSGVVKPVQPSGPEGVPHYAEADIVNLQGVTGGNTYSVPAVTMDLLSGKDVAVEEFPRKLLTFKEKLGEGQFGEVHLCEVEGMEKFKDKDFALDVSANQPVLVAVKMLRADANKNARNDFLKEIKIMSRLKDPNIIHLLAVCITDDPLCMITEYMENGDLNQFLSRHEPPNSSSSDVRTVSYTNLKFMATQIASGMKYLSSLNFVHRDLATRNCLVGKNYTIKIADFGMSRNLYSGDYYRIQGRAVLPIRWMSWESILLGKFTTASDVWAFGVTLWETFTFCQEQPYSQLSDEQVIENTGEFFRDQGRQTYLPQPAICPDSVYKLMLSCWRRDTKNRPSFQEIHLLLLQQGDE

EPHA1 = biological target: T6, EPHA1 (Homo sapiens, UniProt P21709); assay: Off-chip Mobility Shift Assay, kinase inhibition; type: biochemical; details: at 10 nM; recombinant EPHA1
T6 construct: purchased Carna Biosciences, Inc
T6 sequence (P21709 26-976): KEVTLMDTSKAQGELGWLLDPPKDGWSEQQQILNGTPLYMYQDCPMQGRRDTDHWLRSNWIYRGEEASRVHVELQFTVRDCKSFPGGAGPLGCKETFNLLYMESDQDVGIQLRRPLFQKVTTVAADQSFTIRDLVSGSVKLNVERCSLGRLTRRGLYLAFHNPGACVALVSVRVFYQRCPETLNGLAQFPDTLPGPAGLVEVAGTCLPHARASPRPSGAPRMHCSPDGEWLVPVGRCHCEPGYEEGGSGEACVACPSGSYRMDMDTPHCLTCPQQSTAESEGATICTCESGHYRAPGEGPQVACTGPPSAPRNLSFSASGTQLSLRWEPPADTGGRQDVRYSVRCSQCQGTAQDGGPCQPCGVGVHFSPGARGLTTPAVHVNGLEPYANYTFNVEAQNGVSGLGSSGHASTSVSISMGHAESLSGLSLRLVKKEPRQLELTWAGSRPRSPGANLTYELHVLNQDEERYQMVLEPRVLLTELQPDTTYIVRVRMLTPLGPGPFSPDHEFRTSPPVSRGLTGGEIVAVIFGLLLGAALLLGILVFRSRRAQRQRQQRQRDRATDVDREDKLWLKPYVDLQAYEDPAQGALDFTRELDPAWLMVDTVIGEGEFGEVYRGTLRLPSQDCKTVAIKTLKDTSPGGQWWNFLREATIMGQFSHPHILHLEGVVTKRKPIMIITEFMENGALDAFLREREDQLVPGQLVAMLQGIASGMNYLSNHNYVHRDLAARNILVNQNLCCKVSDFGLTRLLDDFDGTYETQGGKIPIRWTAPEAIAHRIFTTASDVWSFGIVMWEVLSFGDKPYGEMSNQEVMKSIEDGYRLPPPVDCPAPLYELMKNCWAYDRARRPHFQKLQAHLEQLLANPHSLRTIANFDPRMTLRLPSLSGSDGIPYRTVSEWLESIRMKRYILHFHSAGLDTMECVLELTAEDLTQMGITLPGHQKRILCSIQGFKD

FGR = biological target: T7, FGR (Homo sapiens, UniProt P09769); assay: Off-chip Mobility Shift Assay, kinase inhibition; type: biochemical; details: at 10 nM; recombinant FGR; read-out: inhibition
T7 construct: purchased Carna Biosciences, Inc

FMS = biological target: T8, FMS (Homo sapiens, UniProt P07333); assay: Off-chip Mobility Shift Assay, kinase inhibition; type: biochemical; details: at 10 nM; recombinant FMS
T8 construct: purchased Carna Biosciences, Inc

FRK = biological target: T9, FRK (Homo sapiens, UniProt P42685); assay: Off-chip Mobility Shift Assay, kinase inhibition; type: biochemical; details: at 10 nM; recombinant FRK
T9 construct: purchased Carna Biosciences, Inc

HCK = biological target: T10, HCK (Homo sapiens, UniProt P08631); assay: Off-chip Mobility Shift Assay, kinase inhibition; type: biochemical; details: recombinant HCK; for inhibition at 0.001 µM: at 1 nM; for inhibition at 0.01 µM: at 10 nM, read-out: inhibition
T10 construct: purchased Carna Biosciences, Inc

LCK = biological target: T11, LCK (Homo sapiens, UniProt P06239); assay: Off-chip Mobility Shift Assay, kinase inhibition; type: biochemical; details: recombinant LCK; for inhibition at 0.001 µM: at 1 nM; for inhibition at 0.01 µM: at 10 nM
T11 construct: purchased Carna Biosciences, Inc

LYNa = biological target: T12, LYNa (Homo sapiens, UniProt P07948); assay: Off-chip Mobility Shift Assay, kinase inhibition; type: biochemical; details: recombinant LYNa; for inhibition at 0.001 µM: at 1 nM; for inhibition at 0.01 µM: at 10 nM, read-out: inhibition
T12 construct: purchased Carna Biosciences, Inc

SRC = biological target: T13, SRC (Homo sapiens, UniProt P12931); assay: Off-chip Mobility Shift Assay, kinase inhibition; type: biochemical; details: recombinant SRC; for inhibition at 0.001 µM: at 1 nM; for inhibition at 0.01 µM: at 10 nM
T13 construct: purchased Carna Biosciences, Inc

[1] = tested on: battery of selected protein kinases; assay: In vitro screen of a battery of selected protein kinases (summary statement); type: biochemical; details: BTK, BMX, ABL, ABL(E255K), SRC, ACK, ARG, BLK, DDR2, EPHA, FGR, FMS, FRK, FYN, HCK, LCK, LYN, PDGFRα, PDGFRβ, YES, PIK3CA/PIK3R1, among others
Mino = assay: Cell inhibition assay (PrestoBlue, 48 h); type: cell-based; details: Homo sapiens, Mino cells, read-out: IC50, inhibition of growth

T11 sequence (P06239 whole entry): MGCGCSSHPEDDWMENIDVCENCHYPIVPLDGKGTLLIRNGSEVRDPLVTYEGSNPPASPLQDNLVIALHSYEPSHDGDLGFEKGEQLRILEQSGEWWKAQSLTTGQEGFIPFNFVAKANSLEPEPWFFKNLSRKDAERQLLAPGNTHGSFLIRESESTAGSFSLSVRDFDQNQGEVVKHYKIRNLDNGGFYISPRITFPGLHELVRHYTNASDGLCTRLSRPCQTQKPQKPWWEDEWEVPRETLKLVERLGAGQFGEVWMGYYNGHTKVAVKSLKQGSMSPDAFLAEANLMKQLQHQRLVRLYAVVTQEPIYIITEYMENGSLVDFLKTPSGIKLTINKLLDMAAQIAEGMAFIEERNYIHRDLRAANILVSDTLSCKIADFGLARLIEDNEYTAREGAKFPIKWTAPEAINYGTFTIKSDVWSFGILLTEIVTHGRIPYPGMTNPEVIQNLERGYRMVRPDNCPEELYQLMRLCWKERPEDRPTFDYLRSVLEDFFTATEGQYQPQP
T2 sequence (P00519 whole entry E255K): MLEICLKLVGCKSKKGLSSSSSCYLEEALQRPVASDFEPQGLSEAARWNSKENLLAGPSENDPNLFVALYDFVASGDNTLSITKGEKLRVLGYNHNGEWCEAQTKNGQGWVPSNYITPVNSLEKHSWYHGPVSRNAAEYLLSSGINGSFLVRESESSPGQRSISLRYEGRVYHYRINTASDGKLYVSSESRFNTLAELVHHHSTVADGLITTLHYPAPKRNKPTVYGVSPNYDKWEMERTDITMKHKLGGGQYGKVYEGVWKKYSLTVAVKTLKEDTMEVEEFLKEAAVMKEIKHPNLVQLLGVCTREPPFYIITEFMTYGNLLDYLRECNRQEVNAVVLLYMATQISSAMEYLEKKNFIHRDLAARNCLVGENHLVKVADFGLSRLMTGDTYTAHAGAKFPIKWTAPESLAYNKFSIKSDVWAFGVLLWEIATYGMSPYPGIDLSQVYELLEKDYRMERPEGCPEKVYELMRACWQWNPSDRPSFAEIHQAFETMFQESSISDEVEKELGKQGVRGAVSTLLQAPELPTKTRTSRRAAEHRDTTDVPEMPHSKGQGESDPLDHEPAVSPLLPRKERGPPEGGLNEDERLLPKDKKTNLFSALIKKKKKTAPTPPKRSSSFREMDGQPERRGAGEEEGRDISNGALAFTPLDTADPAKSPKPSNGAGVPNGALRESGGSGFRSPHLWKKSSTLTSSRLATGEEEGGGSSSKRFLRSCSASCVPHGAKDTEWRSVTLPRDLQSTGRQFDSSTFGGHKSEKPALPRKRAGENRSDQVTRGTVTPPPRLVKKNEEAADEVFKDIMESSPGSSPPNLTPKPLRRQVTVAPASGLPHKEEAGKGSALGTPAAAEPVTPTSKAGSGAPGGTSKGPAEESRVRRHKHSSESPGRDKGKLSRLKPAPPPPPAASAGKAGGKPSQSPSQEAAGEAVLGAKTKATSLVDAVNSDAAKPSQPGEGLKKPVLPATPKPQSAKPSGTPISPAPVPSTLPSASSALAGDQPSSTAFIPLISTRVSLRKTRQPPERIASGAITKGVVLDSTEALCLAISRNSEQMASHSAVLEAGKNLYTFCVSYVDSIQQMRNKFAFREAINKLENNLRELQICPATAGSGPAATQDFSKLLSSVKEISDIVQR
T12 sequence (P07948 whole entry): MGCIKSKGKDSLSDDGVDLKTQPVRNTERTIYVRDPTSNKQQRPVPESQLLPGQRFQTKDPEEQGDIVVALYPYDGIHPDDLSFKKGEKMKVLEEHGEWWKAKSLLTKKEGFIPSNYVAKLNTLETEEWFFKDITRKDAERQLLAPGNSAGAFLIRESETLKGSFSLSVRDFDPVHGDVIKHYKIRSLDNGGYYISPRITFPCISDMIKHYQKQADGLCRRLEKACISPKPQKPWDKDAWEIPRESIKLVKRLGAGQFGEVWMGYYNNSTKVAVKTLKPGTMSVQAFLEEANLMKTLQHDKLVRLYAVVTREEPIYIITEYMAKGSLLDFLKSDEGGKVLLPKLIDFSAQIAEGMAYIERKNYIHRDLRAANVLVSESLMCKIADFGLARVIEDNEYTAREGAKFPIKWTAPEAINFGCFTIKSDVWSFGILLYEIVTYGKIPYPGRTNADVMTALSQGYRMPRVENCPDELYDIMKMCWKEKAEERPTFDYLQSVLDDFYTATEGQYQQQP
T13 sequence (P12931 whole entry): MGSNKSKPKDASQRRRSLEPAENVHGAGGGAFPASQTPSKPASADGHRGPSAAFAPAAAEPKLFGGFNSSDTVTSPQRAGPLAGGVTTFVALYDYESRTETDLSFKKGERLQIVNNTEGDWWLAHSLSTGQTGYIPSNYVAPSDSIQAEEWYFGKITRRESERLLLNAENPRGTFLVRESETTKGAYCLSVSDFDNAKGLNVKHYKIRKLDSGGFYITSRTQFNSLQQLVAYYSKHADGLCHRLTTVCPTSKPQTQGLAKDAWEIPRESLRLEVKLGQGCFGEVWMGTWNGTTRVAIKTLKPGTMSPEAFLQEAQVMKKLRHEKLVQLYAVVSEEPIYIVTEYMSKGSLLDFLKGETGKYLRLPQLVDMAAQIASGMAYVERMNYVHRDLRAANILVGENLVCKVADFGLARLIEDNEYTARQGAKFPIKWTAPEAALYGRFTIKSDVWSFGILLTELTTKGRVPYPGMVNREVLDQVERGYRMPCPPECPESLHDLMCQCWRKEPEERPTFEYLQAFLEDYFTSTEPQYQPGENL
T10 sequence (P08631 whole entry): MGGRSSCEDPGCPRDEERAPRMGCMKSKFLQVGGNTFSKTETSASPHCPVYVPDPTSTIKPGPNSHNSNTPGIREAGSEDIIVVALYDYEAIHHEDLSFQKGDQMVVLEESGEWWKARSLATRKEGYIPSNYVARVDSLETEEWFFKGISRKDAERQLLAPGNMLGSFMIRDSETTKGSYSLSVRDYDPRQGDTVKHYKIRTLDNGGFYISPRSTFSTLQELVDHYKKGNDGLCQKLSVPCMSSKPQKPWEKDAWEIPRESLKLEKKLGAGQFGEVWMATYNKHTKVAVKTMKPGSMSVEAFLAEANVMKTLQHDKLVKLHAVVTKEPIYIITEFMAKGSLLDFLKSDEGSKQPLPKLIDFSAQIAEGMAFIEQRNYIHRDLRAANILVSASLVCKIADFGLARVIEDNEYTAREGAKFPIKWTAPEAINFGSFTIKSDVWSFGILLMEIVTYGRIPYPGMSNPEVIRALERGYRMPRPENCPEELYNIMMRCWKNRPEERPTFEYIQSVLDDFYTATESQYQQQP
T1 sequence (P00519 whole entry): as the sequence (P00519 whole entry E255K) above, with K255E counted along it
T3 sequence (Q07912 whole entry): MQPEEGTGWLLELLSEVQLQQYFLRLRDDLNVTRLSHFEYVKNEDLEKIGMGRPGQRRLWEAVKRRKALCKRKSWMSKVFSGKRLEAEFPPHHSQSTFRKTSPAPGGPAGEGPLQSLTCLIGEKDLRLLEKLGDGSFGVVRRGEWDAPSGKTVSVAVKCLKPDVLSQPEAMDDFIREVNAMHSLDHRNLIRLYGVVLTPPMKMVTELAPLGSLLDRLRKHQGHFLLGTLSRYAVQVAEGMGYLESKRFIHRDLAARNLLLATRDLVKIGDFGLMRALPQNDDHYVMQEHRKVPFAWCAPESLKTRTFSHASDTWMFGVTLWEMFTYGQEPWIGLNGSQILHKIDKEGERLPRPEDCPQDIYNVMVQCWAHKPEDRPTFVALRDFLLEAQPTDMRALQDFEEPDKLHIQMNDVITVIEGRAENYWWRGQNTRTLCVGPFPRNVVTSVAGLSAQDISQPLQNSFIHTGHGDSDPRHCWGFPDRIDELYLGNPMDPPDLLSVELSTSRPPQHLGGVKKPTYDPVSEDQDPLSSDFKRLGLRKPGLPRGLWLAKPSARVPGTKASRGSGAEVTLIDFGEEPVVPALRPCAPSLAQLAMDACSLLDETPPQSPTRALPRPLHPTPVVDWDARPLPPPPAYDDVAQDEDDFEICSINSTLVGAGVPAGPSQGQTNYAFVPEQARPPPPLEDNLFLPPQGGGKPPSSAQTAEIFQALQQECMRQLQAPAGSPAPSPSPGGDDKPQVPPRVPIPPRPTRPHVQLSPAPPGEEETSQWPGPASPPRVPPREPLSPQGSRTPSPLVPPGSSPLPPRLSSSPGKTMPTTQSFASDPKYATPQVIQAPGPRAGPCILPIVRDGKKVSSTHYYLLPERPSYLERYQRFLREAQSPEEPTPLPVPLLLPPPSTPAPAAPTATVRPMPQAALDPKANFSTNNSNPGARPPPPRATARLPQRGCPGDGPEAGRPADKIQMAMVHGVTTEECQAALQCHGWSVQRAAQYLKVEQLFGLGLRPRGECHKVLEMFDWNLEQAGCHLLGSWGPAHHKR
T9 sequence (P42685 whole entry): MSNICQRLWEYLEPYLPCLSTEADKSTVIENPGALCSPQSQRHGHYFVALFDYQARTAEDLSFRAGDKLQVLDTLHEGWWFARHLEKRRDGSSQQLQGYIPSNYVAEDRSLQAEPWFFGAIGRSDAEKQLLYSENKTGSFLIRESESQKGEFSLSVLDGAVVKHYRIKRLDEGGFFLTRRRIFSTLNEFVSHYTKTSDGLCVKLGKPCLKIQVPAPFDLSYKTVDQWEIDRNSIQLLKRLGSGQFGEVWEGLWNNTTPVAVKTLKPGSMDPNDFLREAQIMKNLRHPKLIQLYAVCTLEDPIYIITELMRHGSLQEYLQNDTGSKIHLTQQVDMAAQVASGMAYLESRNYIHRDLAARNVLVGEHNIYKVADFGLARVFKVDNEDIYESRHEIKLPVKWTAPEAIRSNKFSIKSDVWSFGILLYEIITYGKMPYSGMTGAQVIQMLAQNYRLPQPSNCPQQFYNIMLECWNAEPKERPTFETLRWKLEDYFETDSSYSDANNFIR

| inhibition at 0.001 µM (ABL) [%] | inhibition at 0.01 µM (ABL) [%] | inhibition at 0.001 µM (ABL(E255K)) [%] | inhibition at 0.01 µM (ABL(E255K)) [%] | inhibition at 0.01 µM (ACK) [%] | inhibition at 0.01 µM (ARG) [%] | inhibition at 0.01 µM (DDR2) [%] | inhibition at 0.01 µM (EPHA1) [%] | inhibition at 0.01 µM (FGR) [%] | inhibition at 0.01 µM (FMS) [%] | inhibition at 0.01 µM (FRK) [%] | inhibition at 0.001 µM (HCK) [%] | inhibition at 0.01 µM (HCK) [%] | inhibition at 0.001 µM (LCK) [%] | inhibition at 0.01 µM (LCK) [%] | inhibition at 0.001 µM (LYNa) [%] | inhibition at 0.01 µM (LYNa) [%] | inhibition at 0.001 µM (SRC) [%] | inhibition at 0.01 µM (SRC) [%] | Structure (SMILES) | activity to inhibit kinases [1] | other results |
| --- | --- | --- | --- | --- | --- | --- | --- | --- | --- | --- | --- | --- | --- | --- | --- | --- | --- | --- | --- | --- | --- |
| > 50 | > 50 | > 50 | > 50 | > 50 | > 50 | > 50 | > 50 | > 50 | > 50 | > 50 | > 50 | > 50 | > 50 | > 50 | > 50 | > 50 | > 50 | > 50 | Cc1nc(Nc2ncc(C(=O)Nc3c(C)cccc3Cl)s2)cc(N2CC[C@H](N)C2)n1 [Compound XII, N-(2-chloro-6-methylphenyl)-2-[[2-methyl-6-((S)-3-aminopyrrolidin-1-yl)pyrimidin-4-yl]amino]thiazole-5-carboxamide] | potent activity | IC50 (Mino): < 50 nM |
| > 50 | > 50 | > 50 | > 50 | > 50 | > 50 | > 50 | > 50 | > 50 | > 50 | > 50 | > 50 | > 50 | > 50 | > 50 | > 50 | > 50 | > 50 | > 50 | Cc1nc(Nc2ncc(C(=O)Nc3c(C)cccc3Cl)s2)cc(N2CC[C@@H](N)C2)n1 [Compound XIII, N-(2-chloro-6-methylphenyl)-2-[[2-methyl-6-((R)-3-aminopyrrolidin-1-yl)pyrimidin-4-yl]amino]thiazole-5-carboxamide] | potent activity | IC50 (Mino): < 50 nM |
